≈ marks a conversion by molar mass, not a printed value.
Legend:
Cytochrome P450 3A4 = Cytochrome P450 3A4 (Homo sapiens, UniProt P08684); assay: Inhibition of CYP3A4 in human liver microsomes at 0.1 to 25 uM using midazolam as substrate by LC/MS analysis; type: ADME
[1] = Fractional unbound in human plasma; type: ADME, cell-free
[2] = Volume of distribution at steady state in cynomolgus monkey at 2 mg/kg, iv measured for 24 hrs by LC-MS/MS analysis; type: ADME, organism-based, Macaca fascicularis; conditions: in vivo, read-out: Vdss
[3] = biological target: Phosphatidylinositol 4,5-bisphosphate 3-kinase catalytic subunit gamma isoform (Homo sapiens, UniProt P48736); assay: Inhibition of PI3Kgamma (unknown origin) using D-myophosphatidylinositol 4,5-bisphosphate as substrate incubated for 120 mins by [gamma-33P]-ATP based scintillation counting method
Chain of Phosphatidylinositol 4,5-bisphosphate 3-kinase catalytic subunit gamma isoform (P48736 whole entry, canonical isoform): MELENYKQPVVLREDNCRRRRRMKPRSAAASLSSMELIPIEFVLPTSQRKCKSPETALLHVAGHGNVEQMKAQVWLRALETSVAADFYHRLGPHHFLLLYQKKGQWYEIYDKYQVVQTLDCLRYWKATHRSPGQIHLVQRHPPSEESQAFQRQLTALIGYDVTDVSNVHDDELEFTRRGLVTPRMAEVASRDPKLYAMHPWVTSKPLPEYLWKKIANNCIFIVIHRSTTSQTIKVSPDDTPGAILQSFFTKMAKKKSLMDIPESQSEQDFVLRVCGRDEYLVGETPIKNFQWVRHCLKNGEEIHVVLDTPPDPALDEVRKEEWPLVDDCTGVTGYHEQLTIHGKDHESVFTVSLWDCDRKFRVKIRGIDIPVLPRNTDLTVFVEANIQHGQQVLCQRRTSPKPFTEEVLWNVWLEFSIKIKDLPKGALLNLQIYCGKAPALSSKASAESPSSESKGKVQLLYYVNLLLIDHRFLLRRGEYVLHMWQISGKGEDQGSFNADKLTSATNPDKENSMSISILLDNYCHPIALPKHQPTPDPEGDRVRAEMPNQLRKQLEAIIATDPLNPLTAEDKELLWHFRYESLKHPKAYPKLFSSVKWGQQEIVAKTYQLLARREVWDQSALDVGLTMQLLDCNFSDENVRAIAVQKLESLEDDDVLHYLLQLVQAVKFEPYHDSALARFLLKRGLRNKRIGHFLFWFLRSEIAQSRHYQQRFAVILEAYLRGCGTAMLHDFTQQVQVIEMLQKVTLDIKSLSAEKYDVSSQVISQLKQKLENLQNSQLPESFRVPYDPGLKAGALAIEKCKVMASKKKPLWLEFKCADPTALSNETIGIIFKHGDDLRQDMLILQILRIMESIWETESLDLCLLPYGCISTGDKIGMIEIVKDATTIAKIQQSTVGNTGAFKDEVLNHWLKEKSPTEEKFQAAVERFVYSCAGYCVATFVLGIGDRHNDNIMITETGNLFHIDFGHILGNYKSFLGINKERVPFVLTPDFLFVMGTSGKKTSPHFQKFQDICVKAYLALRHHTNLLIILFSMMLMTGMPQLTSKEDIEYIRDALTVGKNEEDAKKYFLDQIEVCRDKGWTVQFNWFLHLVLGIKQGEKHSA

[4] = Oral bioavailability in Beagle dog at 4 mg/kg measured for 24 hrs by LC-MS/MS analysis; type: ADME, organism-based, Canis lupus familiaris; conditions: in vivo
SU-DHL-6 = assay: Cytotoxicity against human SUDHL6 cells assessed as reduction in cell viability incubated for 4 days by celltiter glo luminescent assay; type: functional, cell-based; conditions: SU-DHL-6, 96 h
[5] = Intrinsic clearance in human liver microsomes at 1 uM measured upto 30 mins by LC/MS analysis; type: ADME, Microsome; conditions: read-out: CLH (converted)
[6] = Solubility of the compound at pH 7.4; type: physicochemical; conditions: buffer
[7] = Permeability across apical to basolateral side in human Caco2 cells at 50 uM incubated for 120 mins by LC/MS analysis; type: ADME, cell-based; conditions: Caco-2, read-out: permeability
[8] = Hepatotoxicity in rat measured on day 28; type: toxicity; conditions: in vivo
[9] = biological target: T1, Phosphatidylinositol 4,5-bisphosphate 3-kinase catalytic subunit delta isoform (Homo sapiens, UniProt O00329); assay: Inhibition of PI3Kdelta (unknown origin) using D-myophosphatidylinositol 4,5-bisphosphate as substrate incubated for 120 mins by [gamma-33P]-ATP based scintillation counting method
T1 sequence (O00329 whole entry): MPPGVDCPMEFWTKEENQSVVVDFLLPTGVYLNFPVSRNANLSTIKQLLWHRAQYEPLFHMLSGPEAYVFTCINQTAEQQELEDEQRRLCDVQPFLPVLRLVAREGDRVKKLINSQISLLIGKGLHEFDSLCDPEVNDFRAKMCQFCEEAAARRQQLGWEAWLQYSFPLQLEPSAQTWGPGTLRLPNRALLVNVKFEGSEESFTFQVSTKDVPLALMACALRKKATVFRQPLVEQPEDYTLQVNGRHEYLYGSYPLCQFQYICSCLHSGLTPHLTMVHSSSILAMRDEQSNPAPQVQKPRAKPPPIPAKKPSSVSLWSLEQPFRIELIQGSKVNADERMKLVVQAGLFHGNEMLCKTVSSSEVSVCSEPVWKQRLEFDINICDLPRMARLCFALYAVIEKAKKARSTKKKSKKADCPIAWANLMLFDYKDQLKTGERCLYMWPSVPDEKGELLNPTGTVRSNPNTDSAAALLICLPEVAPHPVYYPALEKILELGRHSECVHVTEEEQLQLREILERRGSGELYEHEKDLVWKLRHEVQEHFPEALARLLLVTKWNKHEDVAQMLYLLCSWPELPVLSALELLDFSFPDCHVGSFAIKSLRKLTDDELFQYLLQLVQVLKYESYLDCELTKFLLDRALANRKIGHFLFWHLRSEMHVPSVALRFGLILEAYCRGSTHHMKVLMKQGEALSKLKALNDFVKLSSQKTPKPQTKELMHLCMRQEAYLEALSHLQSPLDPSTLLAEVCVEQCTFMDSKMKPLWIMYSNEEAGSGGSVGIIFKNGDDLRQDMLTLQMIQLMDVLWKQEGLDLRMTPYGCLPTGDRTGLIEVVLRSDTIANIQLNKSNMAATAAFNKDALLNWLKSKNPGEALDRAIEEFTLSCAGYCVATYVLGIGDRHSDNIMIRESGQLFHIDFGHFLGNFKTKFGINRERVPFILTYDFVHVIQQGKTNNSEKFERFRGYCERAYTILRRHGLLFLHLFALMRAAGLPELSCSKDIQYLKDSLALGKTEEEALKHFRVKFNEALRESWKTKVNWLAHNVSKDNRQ

[10] = Clearance in cynomolgus monkey at 2 mg/kg, iv measured for 24 hrs by LC-MS/MS analysis; type: ADME, organism-based, Macaca fascicularis; conditions: in vivo
[11] = Terminal half life in rat at 4 mg/kg, iv measured for 24 hrs by LC-MS/MS analysis; type: ADME, organism-based; conditions: in vivo, read-out: beta t1/2 (converted)
Cytochrome P450 2B6 = biological target: T2, Cytochrome P450 2B6 (Homo sapiens, UniProt P20813); assay: Inhibition of CYP2B6 in human liver microsomes at 0.1 to 25 uM using bupropion as substrate by LC/MS analysis; type: ADME
T2 sequence (P20813 whole entry): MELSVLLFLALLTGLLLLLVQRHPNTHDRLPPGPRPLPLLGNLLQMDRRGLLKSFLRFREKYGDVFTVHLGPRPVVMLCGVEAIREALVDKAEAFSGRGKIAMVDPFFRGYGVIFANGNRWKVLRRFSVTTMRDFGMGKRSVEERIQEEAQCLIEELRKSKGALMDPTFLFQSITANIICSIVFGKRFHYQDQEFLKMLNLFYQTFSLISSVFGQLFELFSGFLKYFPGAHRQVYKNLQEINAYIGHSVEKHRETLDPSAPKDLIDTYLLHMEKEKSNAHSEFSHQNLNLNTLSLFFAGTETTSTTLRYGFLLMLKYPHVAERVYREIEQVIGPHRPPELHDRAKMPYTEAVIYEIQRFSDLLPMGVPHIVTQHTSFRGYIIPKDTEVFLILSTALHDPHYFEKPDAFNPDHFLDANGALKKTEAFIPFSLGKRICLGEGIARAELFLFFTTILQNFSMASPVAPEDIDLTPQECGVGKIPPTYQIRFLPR

[12] = Terminal half life in cynomolgus monkey at 2 mg/kg, iv measured for 24 hrs by LC-MS/MS analysis; type: ADME, organism-based, Macaca fascicularis; conditions: in vivo, read-out: beta t1/2 (converted)
[13] = biological target: T1, Phosphatidylinositol 4,5-bisphosphate 3-kinase catalytic subunit delta isoform
Description: Inhibition of PI3Kdelta (unknown origin) using D-myophosphatidylinositol 4,5-bisphosphate as substrate incubated for 120 mins by [gamma-33P]ATP based SPA assay

Cytochrome P450 2C19 = Cytochrome P450 2C19 (Homo sapiens, UniProt P33261); assay: Inhibition of CYP2C19 in human liver microsomes at 0.1 to 25 uM using S-mephenytoin as substrate by LC/MS analysis; type: ADME
Chain of Cytochrome P450 2C19 (P33261 whole entry): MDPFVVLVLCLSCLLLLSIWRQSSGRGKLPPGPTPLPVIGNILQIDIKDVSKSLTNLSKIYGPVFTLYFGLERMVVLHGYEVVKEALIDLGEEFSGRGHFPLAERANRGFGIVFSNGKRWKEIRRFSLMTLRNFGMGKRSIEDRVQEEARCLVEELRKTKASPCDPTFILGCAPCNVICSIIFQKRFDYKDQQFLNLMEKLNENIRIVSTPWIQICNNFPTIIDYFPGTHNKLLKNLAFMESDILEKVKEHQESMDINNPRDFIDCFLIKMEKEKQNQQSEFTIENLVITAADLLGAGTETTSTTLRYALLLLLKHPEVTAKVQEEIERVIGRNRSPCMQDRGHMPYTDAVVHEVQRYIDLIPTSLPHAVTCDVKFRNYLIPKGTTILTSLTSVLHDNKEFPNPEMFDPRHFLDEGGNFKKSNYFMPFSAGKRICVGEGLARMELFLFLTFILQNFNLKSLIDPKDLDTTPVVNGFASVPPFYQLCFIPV

[14] = Oral bioavailability in rat at 4 mg/kg measured for 24 hrs by LC-MS/MS analysis; type: ADME, organism-based; conditions: in vivo

Chain of Cytochrome P450 3A4 (P08684 whole entry): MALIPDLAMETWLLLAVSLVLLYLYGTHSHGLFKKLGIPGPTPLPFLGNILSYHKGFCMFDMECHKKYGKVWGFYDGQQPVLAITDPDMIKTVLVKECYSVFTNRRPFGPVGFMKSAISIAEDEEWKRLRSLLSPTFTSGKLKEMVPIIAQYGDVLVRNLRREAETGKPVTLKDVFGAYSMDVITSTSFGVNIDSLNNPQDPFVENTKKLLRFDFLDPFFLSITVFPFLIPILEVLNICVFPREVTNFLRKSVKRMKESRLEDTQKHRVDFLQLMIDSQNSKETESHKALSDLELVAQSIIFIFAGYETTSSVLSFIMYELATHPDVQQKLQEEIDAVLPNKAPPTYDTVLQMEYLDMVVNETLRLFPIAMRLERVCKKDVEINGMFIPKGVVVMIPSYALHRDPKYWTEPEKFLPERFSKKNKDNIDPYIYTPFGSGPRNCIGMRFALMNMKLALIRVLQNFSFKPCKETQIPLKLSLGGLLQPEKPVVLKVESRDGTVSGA

inhibition (INH) (Cytochrome P450 3A4): Not Active
fraction unbound [1]: 0.058
Vd [2]: 0.72 L/kg
IC50 [3]: > 10000 nM
bioavailability [4]: 100%
CLint scaled at 1 µM [5]: 11.7 mL/min/kg
solubility [6]: 210 µg/mL (≈ 485 µM)
Papp A→B at 2 h, 50 µM [7]: 1 ×10⁻⁶ cm/s
IC50 [9]: 1.1 nM
CL [10]: 5%
half-life [11]: 4 h
inhibition (INH) (Cytochrome P450 2B6): Not Active
half-life [12]: 7.3 h
IC50 [13]: < 1 nM
inhibition (INH) (Cytochrome P450 2C19): Not Active
bioavailability [14]: 74%
SMILES: CCOc1c([C@H](C)n2nc(C)c3c(N)ncnc32)cc(Cl)c(F)c1[C@@H]1CNC(=O)C1 [PARSACLISIB]
IC50 (SU-DHL-6): 1.6 nM
Activity [8]: Non-Toxic

— ChEMBL document CHEMBL4406913, “INCB050465 (Parsaclisib), a Novel Next-Generation Inhibitor of Phosphoinositide 3-Kinase Delta (PI3Kδ)” (ACS Med Chem Lett, 2019)
